Source: a compilation of properties of binary mixtures (doi:10.1016/j.jct.2009.06.023)

Assay: xn = mol fraction of the nth substance listed
Settings: 101 kPa

CCCC[n+]1ccn(C)c1.O=[N+]([O-])[O-] + CCCCO
viscosity [mPa·s]
Settings	x2 = 0.129	x2 = 0.26	x2 = 0.361	x2 = 0.456	x2 = 0.565	x2 = 0.65	x2 = 0.753	x2 = 0.848
283.15 K	232	125	75.5	–	29	19.86	11.42	7.82
288.15 K	170.6	–	58.8	38.34	–	16.11	9.74	6.78
293.15 K	126.9	68.4	46.54	31.1	–	13.67	8.41	–
298.15 K	–	53.94	37.64	–	–	11.74	7.28	5.12
303.15 K	70.8	–	30.76	21.48	–	10.17	6.35	4.52
308.15 K	–	–	25.6	18.23	12.37	–	–	3.98
313.15 K	45.28	29.24	–	15.59	–	–	–	3.56
318.15 K	37.11	–	18.41	13.52	–	6.94	4.38	3.19
323.15 K	30.72	20.83	–	11.81	8.33	6.15	–	2.87
328.15 K	25.86	17.89	13.75	10.37	7.37	5.52	3.5	2.6
333.15 K	21.95	15.46	–	9.18	–	4.93	3.17	2.37

CCCC[n+]1ccn(C)c1.O=[N+]([O-])[O-] + CCO
viscosity [mPa·s]
Settings	x2 = 0.11	x2 = 0.254	x2 = 0.352	x2 = 0.447	x2 = 0.556	x2 = 0.663	x2 = 0.748	x2 = 0.852
283.15 K	260	120.4	66	–	21.24	10.88	7.45	3.9
288.15 K	190	90.7	–	28.43	17.96	–	–	3.47
293.15 K	139.3	–	41.09	23.18	15.21	8.84	–	3.08
298.15 K	–	53.62	32.83	19.16	13.06	–	–	2.75
303.15 K	86.8	43.08	26.28	–	11.34	6.71	4.28	–
308.15 K	–	35.32	–	13.73	9.83	–	3.76	2.31
313.15 K	–	–	17.78	11.88	9.05	5	3.38	2.13
318.15 K	38.81	–	15.48	10.26	8.02	4.49	3.08	–
323.15 K	32.11	20.84	14.06	8.91	6.96	4.04	2.81	1.75
328.15 K	26.9	17.9	12.51	–	6.08	3.7	2.57	1.65
333.15 K	22.91	–	10.88	7.7	5.49	3.39	2.38	1.59

CCCC[n+]1ccn(C)c1.O=[N+]([O-])[O-] + CCCO
viscosity [mPa·s]
Settings	x2 = 0.121	x2 = 0.257	x2 = 0.364	x2 = 0.471	x2 = 0.554	x2 = 0.673	x2 = 0.755	x2 = 0.857
283.15 K	243	125.8	72.5	42.71	27.88	15.61	10.26	6.16
288.15 K	–	95.7	56.76	–	23	13.2	8.83	5.29
293.15 K	130.9	68.2	45.1	28.35	19.19	–	7.6	4.64
298.15 K	99.8	53.67	36.43	23.48	16.29	–	6.56	4.05
303.15 K	74	43.04	29.92	19.71	13.94	8.54	5.77	3.59
308.15 K	58.48	35.02	24.93	–	12.03	7.43	5.04	3.21
313.15 K	47.07	28.93	–	14.44	10.5	6.49	4.49	2.87
318.15 K	38.59	24.21	17.89	–	–	5.78	3.97	2.59
323.15 K	–	20.58	15.41	–	8.16	5.09	3.58	2.35
328.15 K	26.75	17.65	13.41	–	7.2	4.58	–	–
333.15 K	22.73	15.31	11.77	8.61	–	4.14	2.94	1.96
